Here are results for ten compounds from ChEMBL document CHEMBL1151352, “Antifeedant Diterpenes For the Gypsy Moth Larvae From Kalmia latifolia: Isolation and Characterization of Ten Grayanoids” (1980).

Common to all, as to assay type: functional
In experiment [1] the test system is Lymantria dispar. As to the kind of experiment: Antifeedant activity in gypsy moth ten third-instar larvae at 45 ug/ml relative to control.
In experiment [2] the test system is Lymantria dispar. As to the kind of experiment: Antifeedant activity in gypsy moth ten third-instar larvae at 2.5 ug/ml relative to control.
Experiment [3] concerns Lymantria dispar. As to the kind of experiment: Antifeedant activity in gypsy moth ten third-instar larvae at 60 ug/ml relative to control.
Experiment [4] relates to Lymantria dispar. Description: Antifeedant activity in gypsy moth ten third-instar larvae at 7.5 ug/ml relative to control.
Experiment [5] relates to Lymantria dispar. As to the kind of experiment: Antifeedant activity in gypsy moth ten third-instar larvae at 17.5 ug/ml relative to control.
The subject of experiment [6] is Lymantria dispar. As to the kind of experiment: Antifeedant activity in gypsy moth ten third-instar larvae at 27 ug/ml relative to control.
Experiment [7] has as its system Lymantria dispar. As to the kind of experiment: Antifeedant activity in gypsy moth ten third-instar larvae at 15 ug/ml relative to control.
Experiment [8] relates to Lymantria dispar. As to the kind of experiment: Antifeedant activity in gypsy moth ten third-instar larvae at 30 ug/ml relative to control.
For experiment [9], the system named is Lymantria dispar. Description: Antifeedant activity in gypsy moth ten third-instar larvae at 20 ug/ml relative to control.
Experiment [10] has as its system Lymantria dispar. Description: Antifeedant activity in gypsy moth ten third-instar larvae at 32.5 ug/ml relative to control.

In [1], `CC(=O)O[C@@H]1[C@@H](O)[C@@]2(O)[C@@H]([C@@H](O)[C@H](O)C2(C)C)[C@](C)(O)[C@@H]2CC[C@@H]3[C@@H](OC(C)=O)[C@]12C[C@@]3(C)O` [KALMITOXIN VI] registered an Activity of 106%.
In [2], `CC(=O)O[C@@H]1[C@@H](OC(C)=O)[C@@]2(O)[C@@H]([C@@H]3O[C@@H]3C2(C)C)[C@](C)(O)[C@@H]2CC[C@@H]3[C@@H](O)[C@]12C[C@@]3(C)O` [KALMITOXIN V] gave an Activity of 92%.
`CC1(C)[C@@H](O)C[C@H]2[C@](C)(O)[C@@H]3CC[C@@H]4[C@@H](O)[C@]3(C[C@@]4(C)O)[C@H](O)[C@@H](O)[C@@]21O` [KALMITOXIN I] came in with an Activity in experiment [3] of 23%.
The compound `CC(=O)O[C@@H]1[C@@H](O)[C@@]23C[C@@H](CC[C@H]2[C@@](C)(O)[C@@H]2[C@@H]4O[C@@H]4C(C)(C)[C@@]12O)[C@](C)(O)C3` [LYONIOL A] displayed an Activity in [4] of 95%.
With `C=C1[C@@H]2CC[C@@H]3[C@@H](O)[C@]2(C[C@@]3(C)O)[C@H](O)[C@@H](O)[C@@]2(O)[C@H]1C[C@H](O)C2(C)C` [KALMITOXIN II], the Activity in experiment [5] is recorded as 86%.
With `CC(=O)O[C@@H]1[C@@H](O)[C@]23C[C@@](C)(O)[C@H](CC[C@H]2[C@@](C)(O)[C@@H]2C[C@H](O)C(C)(C)[C@@]12O)[C@H]3O` [KALMITOXIN III], the Activity in experiment [6] turned out to be 99%.
The compound `C=C1[C@@H]2CC[C@@H]3[C@@H](O)[C@@]2(C[C@@H](O)[C@@]2(O)[C@H]1C[C@H](O)C2(C)C)C[C@@]3(C)O` yielded an Activity in [7] of 65%.
With `CC(=O)O[C@@H]1[C@@H](O)[C@]23C[C@@](C)(O)[C@H](CC[C@H]2[C@@](C)(O)[C@@H]2[C@@H]4O[C@@H]4C(C)(C)[C@@]12O)[C@H]3O` [KALMOTOXIN IV], in [8], the Activity is 47%.
In [9], `C=C1[C@@H]2CC[C@@H]3C[C@@]2(C[C@@H](O)[C@@]2(O)[C@H]1C[C@H](O)C2(C)C)C[C@@]3(C)O` returned an Activity of 121%.
The compound `CC1(C)[C@@H](O)C[C@H]2[C@](C)(O)[C@@H]3CC[C@@H]4[C@@H](O)[C@@]3(C[C@@H](O)[C@@]21O)C[C@@]4(C)O` [GRAYANOTOXIN III] showed an Activity in experiment [10] of 49%.
